Patent publication US20240360091A1, “GLUN2B-SUBUNIT SELECTIVE ANTAGONISTS OF THE N-METHYL-D-ASPARTATE RECEPTORS WITH ENHANCED POTENCY AT ACIDIC PH” (Emory University, priority 2021, published 2024)
Like-named read-outs stand apart in the source and are kept apart here.

Assays:
human GluN1/GluN2B = human GluN1/GluN2B (Homo sapiens (Human), UniProt Q05586+Q13224); experiment: Two electrode voltage-clamp recordings from Xenopus laevis oocytes, GluN2B potency and pH dependence; type: cell-based; conditions: for pH Boost: ratio of IC50 at pH 7.6 to IC50 at pH 6.9
Sequence of human GluN1/GluN2B (Q13224 27-1484, other chains not shown): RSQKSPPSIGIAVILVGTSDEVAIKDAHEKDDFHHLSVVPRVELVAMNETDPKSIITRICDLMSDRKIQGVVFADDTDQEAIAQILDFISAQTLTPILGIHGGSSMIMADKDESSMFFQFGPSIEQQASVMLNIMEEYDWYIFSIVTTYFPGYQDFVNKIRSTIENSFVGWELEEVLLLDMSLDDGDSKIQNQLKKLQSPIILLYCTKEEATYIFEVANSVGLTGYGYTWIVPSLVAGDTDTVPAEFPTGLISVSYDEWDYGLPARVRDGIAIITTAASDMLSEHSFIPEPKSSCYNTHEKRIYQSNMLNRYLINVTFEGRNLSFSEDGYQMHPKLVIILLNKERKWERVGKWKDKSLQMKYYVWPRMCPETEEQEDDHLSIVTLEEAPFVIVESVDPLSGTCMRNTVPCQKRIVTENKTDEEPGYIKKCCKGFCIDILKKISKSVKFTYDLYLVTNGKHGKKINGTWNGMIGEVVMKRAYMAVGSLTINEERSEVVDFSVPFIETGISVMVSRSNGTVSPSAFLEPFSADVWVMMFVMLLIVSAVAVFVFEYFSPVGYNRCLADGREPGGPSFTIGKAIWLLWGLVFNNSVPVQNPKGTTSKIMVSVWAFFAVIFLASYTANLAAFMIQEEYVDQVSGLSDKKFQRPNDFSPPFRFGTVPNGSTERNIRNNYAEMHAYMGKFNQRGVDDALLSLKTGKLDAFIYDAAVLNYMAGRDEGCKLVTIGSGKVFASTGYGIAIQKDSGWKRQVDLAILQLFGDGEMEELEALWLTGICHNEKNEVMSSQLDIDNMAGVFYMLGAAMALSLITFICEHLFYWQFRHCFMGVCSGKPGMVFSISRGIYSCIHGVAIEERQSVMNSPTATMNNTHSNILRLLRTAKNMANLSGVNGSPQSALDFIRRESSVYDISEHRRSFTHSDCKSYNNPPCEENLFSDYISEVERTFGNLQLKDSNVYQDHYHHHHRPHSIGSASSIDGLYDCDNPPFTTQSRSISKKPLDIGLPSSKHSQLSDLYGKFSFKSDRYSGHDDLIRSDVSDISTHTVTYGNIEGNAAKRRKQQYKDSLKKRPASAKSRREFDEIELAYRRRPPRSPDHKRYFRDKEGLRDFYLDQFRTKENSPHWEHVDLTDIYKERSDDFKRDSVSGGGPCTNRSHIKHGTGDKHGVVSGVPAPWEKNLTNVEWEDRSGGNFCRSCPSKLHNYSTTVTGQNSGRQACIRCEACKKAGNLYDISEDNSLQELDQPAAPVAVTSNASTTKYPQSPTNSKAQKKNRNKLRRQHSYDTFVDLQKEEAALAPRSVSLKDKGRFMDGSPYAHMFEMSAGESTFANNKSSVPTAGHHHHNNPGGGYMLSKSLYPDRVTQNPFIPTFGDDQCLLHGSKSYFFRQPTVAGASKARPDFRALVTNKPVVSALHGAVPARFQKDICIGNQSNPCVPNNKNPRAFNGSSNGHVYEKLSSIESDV
Protocol: Two Electrode Voltage-Clamp Recordings from Xenopus laevis Oocytes
Stage V-VI Xenopus laevis unfertilized oocytes were purchased from Ecocyte (Austin, Texas) and injected with 5 ng of GluN1 and 10 ng of GluN2B cRNAs. The cDNAs for human GluN1 and GluN2B, encoding NCBI reference sequences NM_007327.3 and NM_000834.3, respectively, were linearized and cRNAs made as previously described (Traynelis et al., J Neurosci, 1998, 18(16):6163-75). After injection, the oocytes were incubated in Barth's culture solution (88 mM NaCl, 1 mM KCl, 2.4 mM NaHCO3, 10 mM HEPES, 0.82 mM MgSO4, 0.33 mM Ca(NO3)2, 0.41 mM CaCl2), 10 U/mL PenStrep, and 0.1 mg/mL gentamycin, pH 7.4) at 18° C. Two electrode voltage-clamp (TEVC) recordings were made at 22-23° C., 2-7 days after the injection, using Warner OC725C amplifiers (VHOLD=−40 mV). Briefly, the oocytes were perfused in a recording solution (90 mM NaCl, 1 mM KCl, 10 mM HEPES, 0.01 mM EDTA, and 0.5 mM BaCl2) adjusted to either pH 7.6 or 6.9 by addition of NaOH or HCl, respectively (pH 6.9 solutions were prepared by addition of HCl to pH 7.6 solutions to maintain an equal concentration of Na^+ ions in both solutions). Concentration-response curves of the compounds were obtained by application of increasing concentrations of each individual compound until steady state conditions were obtained, in the presence of saturating agonist concentrations (i.e., 100 μM glutamate and 30 μM glycine). In general, oocyte recordings were made from 4-10 oocytes per experiment (i.e., oocyte injection cycle) from ≥two experiments. The concentration-response relationship for each oocyte was fit by equation (1),
Percent Response=(100−minimum)/(1+([concentration]/IC50)^nH)+minimum (1)
where minimum is the residual response in saturating concentration of each individual compound (constrained to be ≥0), and IC50 is the concentration of compound that causes half-maximal inhibition, and nH is the Hill slope.

[1] = system: horizontal locomotor activity of mice; experiment: Locomotor activity; type: in vivo, mouse; conditions: 0.3 mg/kg IP, two hours
Source text: (§1) The locomotor and rotarod studies were approved by the Georgia State University IACUC, an AAALAC accredited institution under the supervision of licensed veterinarians. Mice were group housed, provided nestlets and shelters with access to food pellets and water ad libitum under a 12-hour light/dark cycle.
For locomotor activity measurements, mice (C57B16, >90 days old, Jackson Labs) were placed in a closed (with light on) activity monitoring box for one hour to habituate prior to drug testing. After one hour, animals were removed and injected (IP) with drug and then returned to the activity monitoring box and total locomotor activity was monitored for two hours. The total number of light beam breaks in the cage (horizontal) was determined by a computer and results averaged for each drug. Results were analyzed by ANOVA and Dunnett's post hoc test to compare horizontal activity of drug-treated groups to vehicle controls. Male animals were used for these behavioral tests given only male mice were used in the MCAO transient ischemia studies.

[2] = system: motor coordination of mice on rotarod; experiment: Rotarod performance; type: in vivo, mouse; conditions: 30 mg/kg IP, all four trials
Protocol: as §1
For rotarod experiments, male C57BL/6 mice (>90 days old) were tested using a Rotamax 4/8 rotarod (Columbus Instruments, Columbus, Ohio). Prior to training and testing, the mice were brought to the testing room and allowed to acclimate for two hours prior to any further handling. Mice were placed on a rotating rod (5 rpm), 3.8 cm in diameter and 8 cm wide, elevated 30 cm from the floor of a chamber. After 10 sec of rotation at a fixed velocity, the rotation was slowly accelerated from 5 to 35 rpm over a 5 min period. The duration of time that the mouse could stay on the rotarod, without hanging on for a full rotation or without falling, was recorded. Mice were trained 4 times at 25 min inter-trial intervals on each day for two days. On day three, mice were randomly assigned to treatment groups and administered test drug or vehicle (via IP administration) 25 min prior to testing (4 trials with inter-trial interval of 25 min). Individuals performing the experiment were blinded to the identity of each treatment group. Results were analyzed by ANOVA and Dunnett's post hoc test to compare duration of time on the rotating rod of drug-treated groups to the vehicle controls.

GluN2B = conditions: between pH 6.8 and pH 7.5; cited from earlier work
nonhuman primates = conditions: acute administration; cited from earlier work
[3] = pH 6.9, read-out: IC50 (μM) pH 6.9
[4] = pH 7.6, read-out: IC50 (μM) pH 7.6

Row | SMILES | IC50 (human GluN1/GluN2B; [3]) | IC50 (human GluN1/GluN2B; [4]) | pH Boost (human GluN1/GluN2B) | other results
1 | CS(=O)(=O)Nc1ccc(OC[C@@H](O)CN2CCN(c3ccc(F)c(F)c3)CC2)cc1 [Compound 93-108] | 0.031 µM | 0.558 µM | 18.0 | –
2 | Oc1ccc(OC[C@@H](O)CN2CCN(c3ccc(F)c(F)c3)CC2)cc1 [Compound 10030] | 0.087 µM | 0.978 µM | 11.2 | –
3 | Oc1ccc(OC[C@@H](O)CN2CCN(c3ccccc3)CC2)cc1 [Compound 10039] | 0.217 µM | 0.476 µM | 2.2 | –
4 | Cc1ccc(N2CCN(C[C@H](O)COc3ccc(O)cc3)CC2)cc1 [Compound 10040] | 0.074 µM | 0.26 µM | 3.5 | –
5 | Oc1ccc(OC[C@H](O)CN2CCN(c3ccc(F)c(F)c3)CC2)cc1 [Compound 10052] | 0.05 µM | 0.272 µM | 5.4 | –
6 | NC(=O)Nc1ccc(OC[C@@H](O)CN2CCN(c3ccc(Cl)cc3)CC2)cc1 [Compound 10075] | 0.046 µM | 0.452 µM | 9.8 | –
7 | CC(C)c1ccc(N2CCN(C[C@H](O)COc3ccc(O)cc3)CC2)cc1 [Compound 10082] | 0.356 µM | 1.37 µM | 3.8 | –
8 | NC(=O)Nc1ccc(OC[C@@H](O)CN2CCN(c3ccc(Cl)c(Cl)c3)CC2)cc1 [Compound 10131] | 0.103 µM | 0.947 µM | 9.2 | –
9 | O=C1Cc2cc(OC[C@@H](O)CN3CCN(c4ccc(Cl)cc4)CC3)ccc2N1 [Compound 10146] | 0.029 µM | 0.37 µM | 12.8 | –
10 | NC(=O)Nc1ccc(OC[C@H](O)CN2CCN(c3ccc(Cl)cc3)CC2)cc1 [Compound 10165] | 0.019 µM | 0.06 µM | 3.2 | –
11 | NC(=O)Nc1ccc(OC[C@H](O)CN2CCN(c3ccc(Cl)c(Cl)c3)CC2)cc1 [Compound 10166] | 0.03 µM | 0.132 µM | 4.4 | –
12 | CCc1ccc(N2CCN(C[C@H](O)COc3ccc(O)cc3)CC2)cc1 [Compound 10171] | 0.046 µM | 0.316 µM | 6.9 | –
13 | CCc1ccc(N2CCN(C[C@H](O)COc3ccc(NC(N)=O)cc3)CC2)cc1 [Compound 10189] | 0.094 µM | 1 µM | 10.6 | –
14 | NC(=O)Nc1ccc(OC[C@@H](O)CN2CCN(c3ccc(F)cc3)CC2)cc1 [Compound 10214] | 0.221 µM | 2.18 µM | 9.9 | –
15 | CCCc1ccc(N2CCN(C[C@H](O)COc3ccc(NC(N)=O)cc3)CC2)cc1 [Compound 10215] | 0.13 µM | 1.3 µM | 10.0 | –
16 | CCc1ccc(N2CCN(C[C@@H](O)COc3ccc(NC(N)=O)cc3)CC2)cc1 [Compound 10222] | 0.052 µM | 0.183 µM | 3.5 | –

Row | SMILES | IC50 (human GluN1/GluN2B; [3]) | IC50 (human GluN1/GluN2B; [4]) | pH Boost (human GluN1/GluN2B) | other results
17 | CCCc1ccc(N2CCN(C[C@@H](O)COc3ccc(NC(N)=O)cc3)CC2)cc1 [Compound 10224] | 0.034 µM | 0.171 µM | 5.0 | –
18 | NC(=O)Nc1ccc(OC[C@H](O)CN2CCN(c3ccc(F)cc3)CC2)cc1 [Compound 10225] | 0.097 µM | 0.527 µM | 5.4 | –
19 | O=C1Cc2cc(OC[C@H](O)CN3CCN(c4ccc(Cl)cc4)CC3)ccc2N1 [Compound 10228] | 0.121 µM | 0.592 µM | 4.9 | potency against GluN2B compared to corresponding S enantiomer (human GluN1/GluN2B): lower potency
20 | CS(=O)(=O)Nc1ccc(OC[C@H](O)CN2CCN(c3ccc(F)c(F)c3)CC2)cc1 [Compound 10233] | 0.047 µM | 0.294 µM | 6.3 | potency against GluN2B compared to corresponding S enantiomer (human GluN1/GluN2B): lower potency
21 | CCCCc1ccc(N2CCN(C[C@H](O)COc3ccc(O)cc3)CC2)cc1 [Compound 10235] | 0.398 µM | 4.38 µM | 11.0 | –
22 | Oc1ccc(OC[C@H](O)CN2CCN(c3ccccc3)CC2)cc1 [Compound 10243] | 0.071 µM | 0.574 µM | 8.1 | –
23 | Cc1ccc(N2CCN(C[C@@H](O)COc3ccc(O)cc3)CC2)cc1 [Compound 10244] | 0.047 µM | 0.305 µM | 6.5 | –
24 | CCc1ccc(N2CCN(C[C@@H](O)COc3ccc(O)cc3)CC2)cc1 [Compound 10245] | 0.025 µM | 0.385 µM | 15.4 | –
25 | CC(C)c1ccc(N2CCN(C[C@@H](O)COc3ccc(O)cc3)CC2)cc1 [Compound 10247] | 0.144 µM | 0.675 µM | 4.7 | –
26 | CCCCc1ccc(N2CCN(C[C@@H](O)COc3ccc(O)cc3)CC2)cc1 [Compound 10249] | 0.549 µM | 3.42 µM | 6.2 | potency against GluN2B compared to corresponding S enantiomer (human GluN1/GluN2B): lower potency
27 | NC(=O)Nc1ccc(OC[C@H](O)CN2CCN(c3ccc(C(F)(F)F)cc3)CC2)cc1 [Compound 10272] | 0.022 µM | 0.128 µM | 5.8 | –
28 | NC(=O)Nc1ccc(OC[C@@H](O)CN2CCN(c3ccc(C(F)(F)F)cc3)CC2)cc1 [Compound 10294] | 0.03 µM | 0.209 µM | 7.0 | –
29 | C[C@]12N[C@H](Cc3ccccc31)c1ccccc12 [MK-801] | – | – | – | horizontal activity compared to the vehicle control [1]: significant increase
30 | O=C1CCc2cc(OC[C@@H](O)CN3CCN(c4ccc(C(F)(F)F)cc4)CC3)ccc2N1 [NP10309] | 0.111 µM | 0.717 µM | 6.5 | IC50 (human GluN1/GluN2B; pH 6.9, read-out: IC50 value at pH 6.9): 0.111 µM; IC50 (human GluN1/GluN2B; pH 7.6, read-out: IC50 value at pH 7.6): 0.717 µM
31 | CC(C(O)c1ccc(O)cc1)N1CCC(Cc2ccccc2)CC1 (stereo not drawn) [ifenprodil, reference compound] | – | – | – | latency-to-fall score [2]: significant reduction
32 | C[C@@H]([C@@H](O)c1ccc(O)cc1)N1CCC(O)(c2ccccc2)CC1 [traxoprodil] | – | – | – | pH sensitivity for inhibition of receptors (GluN2B): does not possess a significant pH sensitivity; cognitive effects in nonhuman primates (nonhuman primates): produced cognitive impairments in a dose-dependent manner
